The structures appear in SMILES notation. Read-outs that look alike come from different tables or passages of the source. Some results are limits rather than exact numbers.

Our source for the Metal content and IC50 values is publication PMC12699179, “Investigating Metal and Fluorophore Controlled Intracellular Localization in Noble Metal Thiosemicarbazone Complexes” (Chemistry (Weinheim an Der Bergstrasse, Germany), 2025).

In data set [1] the test system is HeLa cells. In words: Cellular uptake assay, metal content by ICP-MS. The data set is classed as cell-based. The settings on record: 10 µM, 24 h, whole cell accumulation by ICP-MS. The protocol:
Subsequently, we investigated the uptake of the conjugates 5 and 7 (at 10 µM) by incubating HeLa cells with the respective compounds for 24 hours and analyzing the final metal concentration inside the cells using inductively coupled plasma mass spectrometry (ICP‐MS). […]
HeLa cells were harvested and seeded in 100 mm × 21 mm cell culture dishes at a density of 200,000 cells per dish in 10 mL of growth medium. After 96 hours of incubation, when the cells had reached 90% confluency, the growth medium was aspirated and replaced with fresh medium containing 10 μM of a compound belonging to sets 5 or 7, respectively. The cells were incubated with the compound for 24 h, after which the medium was aspirated, and the cells were washed three times with 10 mL of PBS buffer. Subsequently, the washed cells were […]
trypsinized for 3 min, and the trypsin reaction was halted by the addition of 3 mL growth media.
Cells were suspended in the mixture, and the total cell count was determined using a Bio -Rad TC20 cell counter. The cell suspension was centrifuged at 5000 rpm for 5 minutes, and the supernatant was removed. The cells were then digested using 2 mL of aqua regia (3:1 v/v, 37% HCl and 70% HNO3, trace metal basis quality (Aldrich, purity ≥99.999%)) and sonicated at 60 °C for 16 h. The dissolved samples were then diluted with 13 mL of HPLC-grade water to reach a final volume of 15 mL. The total metal content of the samples was then determined via ICP-MS analysis (Thermo Scientific iCAP RQ, ASX-560) in Ar plasma in KED mode with He as collision gas. Reference to standards was made, and calibration curves were developed using commercial calibration standards (TraceCert®, Merck).
Fluorophore Compound Metal content
Table S3: Whole cell accumulation of compound sets 5 and 7 analyzed using ICP-MS and expressed in terms of total metal content. […]

Data set [2] concerns HeLa cells. The experiment in a line: MTT antiproliferative / cell viability assay. The settings on record: mean of three ± SD. Type of data set: cell-based. As for the experimental part: We investigated the antiproliferative activities of compounds 4‒8 against HeLa cells using the standard 3‐(4,5‐dimethylthiazol‐2‐yl)‐2,5‐diphenyltetrazolium bromide (MTT) assay (Table 2). […]
8. Cell viability studies […]
media. All biological experiments were thus conducted using 5 mM stock solutions in DMSO that were diluted with culture medium to produce a final concentration of 0.5% DMSO for all experiments unless specified otherwise.
Cell viability experiments
HeLa cells were harvested, pelleted by centrifugation, and resuspended in cell culture medium. The MTT assays were carried out in 96 well plates at a starting density of 1500 cells per well in 100 µL of culture medium. The next day, a dilution series of 7 different concentrations was prepared for each evaluated compound. After 24 h of incubation, the cells were treated with 100 µL of culture medium containing the prepared conc entrations of the respective compounds to reach a final volume of 200 µL in each well. As a negative control, one series of cells was treated with the vehicle only (0.5% DMSO). […]
MTT dye (2.5 mg/mL). After a further incubation of 2 h, the medium was aspired off, and 200 µL DMSO was added to solubilize the precipitated formazan dye. The formazan absorption was measured on a BMG LABTECH CLARIOstar Plus plate reader at 550 nm, using a reference wavelength of 620 nm. Using the mean absorbance of each set of identically treated wells, a dose-response curve was produced and normalized to the wells containing untreated cells to allow for plate-to-plate comparison. The dose-response curves were then subjected to non-linear regression analysis performed in Microsoft Excel to determine IC50 values. Data is shown as the mean of three replicate experiments, and error bars represent the standard

The compound `CC1=CC(C)=[N+]2C1=Cc1ccc(CCC(=O)NCCc3cccc(C4=[N+]5N=C(N(C)C)[S][Pt-2]5([Cl])[n+]5ccccc54)n3)n1[B-]2(F)F` (stereo not drawn) [Compound 7b] came in with a Metal content with HeLa cells [1] of 0.013 ± 0.002 pg/cell. The IC50 in the data set on HeLa cells [2] (24 hours incubation, read-out: IC50 24 hours) was above 15 µM; with HeLa cells [2] (72 hours incubation, read-out: IC50 72 hours), 4.3 ± 0.3 µM.
